Assay results: US11224223B2, “Feeding deterrence of pests such as Hemiptera, Lepidoptera and Coleoptera” (BEDOUKIAN RESEARCH, INC., priority 2012, dated 2022)

Key:
Type in all cases: in vivo
saw tooth grain beetles = assay: Repellency of test compounds on grain beetles, treated corn kernels; details: 5% in isopropyl alcohol, 3 week period
Description: Ten replicates of 30 kernels of corn are immersed into the test compound and allowed to dry for 24 hours. The kernels are then transferred to a test container, and 10 saw tooth grain beetles are released. Test containers are secured and left for a 3 week period. At the end of this time, the […] grains are examined for feeding damage. […] Ten additional replicates treated with isopropyl alcohol are prepared to serve as controls.

Codling Moth larvae = assay: Repellency as feeding deterrence and mortality in Codling Moth larvae on treated media
Description: Another test was designed to measure the repellency as feeding deterrence in Codling Moth larvae. The treatment was applied to the surface of a proprietary laboratory media in a tray with wells for each compound. The media was allowed to dry for 30-60 minutes so that larvae were not exposed to it as a liquid. One first instar codling moth larva was then placed on the treated media. The cover film was placed on the tray to prevent escapes. Ten additional replicates treated with a 57% ethanol solution were prepared to serve as controls. […] After the 24 hour reading, the larvae were extracted from the media to record any mortality.
Mortality observations were also made for the above protocol. The control was the 57% ethanol:43% water solution.

granary weevils = assay: Granary weevil test on treated wheat kernels; details: 5% in isopropyl alcohol, 3 week period
Description: Ten replicates of 30 kernels of wheat were immersed into the test compound and allowed to dry for 24 hours. The grains were then transferred to a test container, and 10 granary weevils were released. Test containers were secured and left for a 3 week period. At the end of this time, the wheat grains were examined for developing larvae and damage by larvae. […] Ten additional replicates treated with isopropyl alcohol were prepared to serve as controls.

psyllids = assay: Psyllid repellency on potato choice assays; details: 3% compound; potato plants; 100 psyllids per cage; control 50/50
Description: Psyllid Repellency on Potato Choice Assays
Potato plants are sprayed with either a 3% solution of repellent chemical in a 5%:95% ETOH:Water or only 5%:95% ETOH:Water as a control. Two plants are placed in a screen cage, either a treatment vs control tree or a control vs control tree, 100 psyllids are released into each cage. The number of psyllids choosing each leaf is counted for both choice tests. The number of psyllids choosing each treatment is compared to the control to determine if there is a repellent effect.

[1] = system: Euschistus heros-Neotropical Brown Stink Bugs; assay: Stink bug feeding damage on soybean pods; details: 3% compound, soybean plants at R6 stage, 48 hours
Description: To compare the feeding/resting preference of stink bug adults for different plant parts, 10 pots with soybean plants at the R6 (pod-filling) stage of development are used. 5 pots of soybeans are sprayed with 3% of treatment in a 2% Triton X:water solution and 5 pots of soybean are treated with 2% Triton X:water solution as controls. Thirty stink bugs are placed individually in each cage and allowed to feed for 48 hours. Insects are removed and plant parts are collected for visual analysis of damage. Feeding damage on the pods is counted for both treatments. The selective antifeeding rate (%) formula is [(C−T)/(C+T)]×100, and the non-selective antifeeding rate (%) formula is [(C−T)/C)]×100, where C and T are the numbers of feeding damages on the control and treated plant pods, respectively.

Dermestid spp. = assay: Dermestid beetle feeding damage on silk fabric; details: 3% compound; undyed silk disks; late instar larvae; 1 week
Description: Dermestid Beetle Feeding Damage on Silk Fabric
For feeding assays, 3% alcohol solutions of the tested compounds are prepared. Disks (4.0 cm in diameter) of undyed silk fabric are dipped in the test solutions or alcohol alone as a control. After the complete evaporation of the solvent, the disks are offered to 10 late instar larvae. All dishes are placed in an incubator. Four replicates are used for each chemical. After 1 week, the remaining uneaten area of each silk disk is measured using a scanner and software. The selective antifeeding rate (%) formula is [(C−T)/(C+T)]×100, and the non-selective antifeeding rate (%) formula is [(C−T)/C)]×100, where C and T are the areas consumed by the control and treated silk disks, respectively.

Tineola spp. = assay: Clothes moth feeding damage on silk fabric, choice test; details: 3% compound; silk disks; late instar larvae; 24 hours; control 50/50
Description: For feeding assays, 3% alcohol solutions of the tested compounds are prepared. Disks (2.0 cm in diameter) of undyed silk fabric are dipped in the test solutions or alcohol alone as a control. After the complete evaporation of the solvent, the disks are presented in a choice test to 10 late instar Tineola spp. larvae. All dishes are placed in an incubator in the dark. Four replicates are used for each chemical. After 24 hours, the number of individuals choosing to feed on each disk are counted.

sharpshooters = assay: Leafhopper repellency on citrus choice assays; details: 3% compound; citrus seedlings; 100 sharpshooters per cage; control 50/50
Description: Leafhopper Repellency on Citrus Choice Assays Citrus seedlings are sprayed with either a 3% solution of repellent chemical in a 5%:95% ETOH:Water or only 5%:95% ETOH:Water as a control. Two seedlings are placed in a screen cage, either a treatment vs control tree or a control vs control tree. 100 sharpshooters are released into each cage. The number of sharpshooters choosing each leaf is counted for both choice tests. The number of sharpshooters choosing each treatment is compared to the control to determine if there is a repellent effect.

Sitostroga cerealella = assay: Feeding repellent assay for Angoumois larva on treated rice; details: 10% compound in a 5% Ethanol:95% water solution, third instar larvae, 1 week
Description: Feeding Repellent Assay for Angoumois Larva
(§1) One gram of rice is weighed and treated with 2% by weight of each test chemical or ethanol as a control for each treatment and replicate. The grains are allowed to dry and then weighed again. Treated or control rice grains are placed in a petri dish. Third instar larvae are starved for 8 h and gently introduced into the center of each compartment. 20 larva are screened per treatment, and each experiment is repeated three times. The weight of rice grains is measured again after 1 week. The selective antifeeding rate (%) formula is [(C−T)/(C+T)]×100, and the non-selective antifeeding rate (%) formula is [(C−T)/C)]×100, where C and T are the areas consumed by the control and treated leaf disks, respectively.

Plodia interpunctella = assay: Feeding repellent assay for Indian meal moth larva on treated rice; details: 10% compound in a 5% Ethanol:95% water solution, third instar larvae, 1 week
Description: as §1, with “Feeding Repellent Assay for Indian Meal Moth Larva One” for “One”

Popillia japonica = assay: Japanese beetle feeding damage on basil; details: 3% compound; basil leaf disks; adult beetle; 24 h
Description: (§2) Japanese Beetle Feeding Damage on Basil For choice feeding assays, 3% alcohol solutions of the tested compounds are prepared. Disks (4.0 cm in diameter) are cut from basil leaves and are dipped in the test solutions or alcohol alone as a control. After the complete evaporation of the solvent, the disks are offered to 1 adult beetle. All dishes are placed in an incubator. Four replicates are used for each chemical. After 24 h, the remaining uneaten area of each basil leaf disk is measured using a scanner and software. The selective antifeeding rate (%) formula is [(C−T)/(C+T)]×100, and the non-selective antifeeding rate (%) formula is [(C−T)/C)]×100, where C and T are the areas consumed by the control and treated leaf disks, respectively.

[2] = system: Leptinotarsa decemlineata-Colorado Potatoe Beetles; assay: Choice feeding assay on potato leaf disks; details: 3% compound, larvae, 24 h
Description: as §2, with “For” for “Japanese Beetle Feeding Damage on Basil For”, “potato” for “basil”, “10 larvae. Control and treated disks are placed at alternate corners in Petri dishes (150 by 20 mm) lined with moistened filter paper (choice test).” for “1 adult beetle.”, “replicates and 40 larva” for “replicates”, “chemical. In each replicate, the insects are allowed to feed ad libitum for 24 h at 24 C under a 16:8 (L:D) photoperiod.” for “chemical.”

Aphis gossypii = assay: Melon aphid repellency on leaf choice assays; details: 3% compound in a Triton X:Water solution; n=100; control 50/50
Description: Melon Aphid Repellency on Leaf Choice Assays Aphis gossypii are maintained on squash plants. Individual aphids (n=100) are given the choice between leaves with and without repellent treatments. A separate group of aphids are given a choice between untreated vs. untreated leaves as a control. The number of aphids choosing each leaf is counted both choice tests. The number of aphids choosing each treatment is compared to the control to determine the repellent effect.

Structure (SMILES): CCCC1CC(=O)C=C(C)C1 (stereo not drawn) [3-Methyl-5-Propyl-2-Cyclohexenone]
- Increased Repellency vs. Control Repellency (saw tooth grain beetles): 60%
- Repellency at 24 hours (Codling Moth larvae; compound at 3.5% in a 57% Ethanol:43% water solution, first instar larva, control 8%): 21%
- Increased Mortality over Control Mortality at 24 hours (Codling Moth larvae; in vivo): 1%
- Increased Mortality over Control Mortality (granary weevils): 57%
- Increased Repellency vs. Control Repellency (granary weevils): 66%

Structure (SMILES): CCCCCCCCCC1CCC(=O)O1 (stereo not drawn) [Gamma Tridecalactone]
- Number of Psyllids Choosing each Treatment: Treated (psyllids): 20
- Number of Psyllids Choosing each Treatment: Untreated (psyllids): 80
- % Antifeedent Activity [1]: 80%
- % Repellency (Dermestid spp.): 40%
- Increased Repellency vs. Control Repellency (saw tooth grain beetles): 40%
- Individuals choosing to feed on each disk: Treated (Tineola spp.): 10
- Individuals choosing to feed on each disk: Untreated (Tineola spp.): 90
- Increased Repellency vs. Control Repellency (granary weevils): 40%
- Number of Psyllids Choosing each Treatment: Treated (sharpshooters): 20
- Number of Psyllids Choosing each Treatment: Untreated (sharpshooters): 80
- % Antifeedent Activity (Sitostroga cerealella): 70%
- % Antifeedent Activity (Plodia interpunctella): 70%
- % Repellency (Popillia japonica): 40%
- % Repellency [2]: 40%
- Number of Aphids Choosing each Treatment: Treated (Aphis gossypii): 20
- Number of Aphids Choosing each Treatment: Untreated (Aphis gossypii): 80

Structure (SMILES): CC1=CC(O)CC(CC(C)C)C1 (stereo not drawn) [3-Methyl-5-Isobutyl-2-Cyclohexenol]
- Increased Repellency vs. Control Repellency (saw tooth grain beetles): 85%
- Increased Mortality over Control Mortality (granary weevils): 93%
- Increased Repellency vs. Control Repellency (granary weevils): 86%
